Measured values taken from patent US12679878B2, “CRF2 receptor agonists and their use in therapy” (SANOFI, priority 2020, dated 2026).
Like-named read-outs stand apart in the source and are kept apart here. Starred links: 1 amine or outer side, 2 acyl side, 3 side chain; linkers in the order of their positions; H or OH if unused. Non-standard residues stand in square brackets, D forms with d. Residues, ends and D or L forms follow the SMILES beside them. Groups on a side chain read outwards from the residue. No end group written: not given here. *: point of attachment. C20 diacid = O=C(O)CCCCCCCCCCCCCCCCCCC(=O)*; C18 diacid = O=C(O)CCCCCCCCCCCCCCCCC(=O)*; γGlu = O=C(O)[C@H](CCC(=O)[*:2])N[*:1]; AEEA = NCCOCCOCC(=O)O; Aib = CC(C)(N)C(=O)O

T1: CRF1R receptor (Homo sapiens, UniProt P34998)
T1 construct: host or cells: CHO-K1 clone 2
T1 sequence (P34998 24-415): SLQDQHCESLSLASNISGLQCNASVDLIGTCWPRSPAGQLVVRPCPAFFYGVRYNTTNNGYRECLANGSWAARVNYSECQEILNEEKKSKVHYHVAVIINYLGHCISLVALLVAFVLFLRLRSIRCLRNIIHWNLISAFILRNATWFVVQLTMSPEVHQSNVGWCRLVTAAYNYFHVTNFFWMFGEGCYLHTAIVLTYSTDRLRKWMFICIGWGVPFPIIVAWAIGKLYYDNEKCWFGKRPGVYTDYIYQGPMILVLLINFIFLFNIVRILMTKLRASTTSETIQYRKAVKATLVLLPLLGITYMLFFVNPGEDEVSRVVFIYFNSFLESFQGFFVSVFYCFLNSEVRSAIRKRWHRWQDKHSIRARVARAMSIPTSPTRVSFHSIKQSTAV

T2: human CRF2α receptor (Homo sapiens, UniProt Q13324)
T2 construct: expressed in transfected cells; host or cells: TeloHEAC
T2 sequence (Q13324 1-411): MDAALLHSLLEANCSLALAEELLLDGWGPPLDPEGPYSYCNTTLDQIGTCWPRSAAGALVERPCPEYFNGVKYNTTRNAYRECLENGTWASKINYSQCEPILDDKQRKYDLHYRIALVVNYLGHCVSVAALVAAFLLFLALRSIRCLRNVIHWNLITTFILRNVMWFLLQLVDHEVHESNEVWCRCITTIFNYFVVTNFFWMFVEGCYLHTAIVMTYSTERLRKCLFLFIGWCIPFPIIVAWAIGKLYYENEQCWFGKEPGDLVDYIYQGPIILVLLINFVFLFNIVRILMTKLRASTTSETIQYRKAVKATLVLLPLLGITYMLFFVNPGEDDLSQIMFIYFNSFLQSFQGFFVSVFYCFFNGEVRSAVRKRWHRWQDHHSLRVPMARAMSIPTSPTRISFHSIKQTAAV

T3: CRF1R receptor (anti-target) (UniProt P34998 24-415, limits assumed)
T3 sequence (looked up): T1 sequence (P34998 24-415)

B1: peptide of SEQ ID NO: 16 (peptide)
peptide: IVLSLDVPIGLK([AEEA-AEEA-γGlu-C18 diacid])QKLLKQQRQRKERQQAEKNARILARV-NH2
modifications: N-terminus assumed
SMILES: CC[C@H](C)[C@H](N)C(=O)N[C@H](C(=O)N[C@@H](CC(C)C)C(=O)N[C@@H](CO)C(=O)N[C@@H](CC(C)C)C(=O)N[C@@H](CC(=O)O)C(=O)N[C@H](C(=O)N1CCC[C@H]1C(=O)N[C@H](C(=O)NCC(=O)N[C@@H](CC(C)C)C(=O)N[C@@H](CCCCNC(=O)COCCOCCNC(=O)COCCOCCNC(=O)CC[C@H](NC(=O)CCCCCCCCCCCCCCCCC(=O)O)C(=O)O)C(=O)N[C@@H](CCC(N)=O)C(=O)N[C@@H](CCCCN)C(=O)N[C@@H](CC(C)C)C(=O)N[C@@H](CC(C)C)C(=O)N[C@@H](CCCCN)C(=O)N[C@@H](CCC(N)=O)C(=O)N[C@@H](CCC(N)=O)C(=O)N[C@@H](CCCNC(=N)N)C(=O)N[C@@H](CCC(N)=O)C(=O)N[C@@H](CCCNC(=N)N)C(=O)N[C@@H](CCCCN)C(=O)N[C@@H](CCC(=O)O)C(=O)N[C@@H](CCCNC(=N)N)C(=O)N[C@@H](CCC(N)=O)C(=O)N[C@@H](CCC(N)=O)C(=O)N[C@@H](C)C(=O)N[C@@H](CCC(=O)O)C(=O)N[C@@H](CCCCN)C(=O)N[C@@H](CC(N)=O)C(=O)N[C@@H](C)C(=O)N[C@@H](CCCNC(=N)N)C(=O)N[C@H](C(=O)N[C@@H](CC(C)C)C(=O)N[C@@H](C)C(=O)N[C@@H](CCCNC(=N)N)C(=O)N[C@H](C(N)=O)C(C)C)[C@@H](C)CC)[C@@H](C)CC)C(C)C)C(C)C

Assays:
[1] = target: T1, CRF1R receptor; assay: cAMP activity at anti-target CRF1R, CRF1R-overexpression CHO cell line (Example 9); type: cell-based; details: CRF1R-overexpression CHO cell line
Protocol: Cells were grown in a T175 culture flask placed at 37° C. to near confluence in medium (DMEM/10% FBS) and collected in 2 ml vials in cell culture medium containing 10% DMSO in a concentration of 10-50 million cells/ml. Each vial contained 1.8 ml cells. The vials were slowly frozen to −80° C. in isopropanol and then transferred in liquid nitrogen for storage. Prior to use, frozen cells were thawed quickly at 37° C. and washed (5 min at 900 rpm) with 20 ml cell buffer (1×HBSS; 20 mM HEPES; 0% or 0.1% HSA). Cells were resuspended in assay buffer (cell buffer plus 2 mM IBMX) and adjusted to a cell density of 1 million cells/ml. For measurement, 5 μl cells (final […]) and 5 μL of test compound were added to a 384-well plate, followed by incubation for 30 minutes at room temperature.
The CAMP content of cells was determined using a kit from Cisbio Corp. (cat. no. 62AM4PEC) based on HTRF (Homogenous Time Resolved Fluorescence). […] The percent activity value (E %) was calculated by setting 1000 nM of urocortin 2 (UCN2) as 100%.
A CRF1R-overexpression CHO cell line was used in this study.

[2] = target: T2, human CRF2α receptor; assay: cAMP agonism at human CRF2 α receptor in TeloHEAC cells (Example 7); type: cell-based; details: cAMP HTRF, TeloHEAC cells stably expressing human CRF2 α
Method in brief: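 Steps: thaw and wash cells; suspend in 1×HBSS, 20 mM HEPES, 0 or 0.1% HSA, 2 mM IBMX; add compound, 30 min RT; lyse with HTRF reagents, 1 h; read 665/620 nm. EC50 calculated, E% versus 1000 nM UCN2.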

[3] = target: T3, CRF1R receptor (anti-target); assay: cell-based or functional assay

| Molecule | EC50 ([1]; 0% HSA) | Emax ([1]; read-out: Emax (%)) | EC50 ([2]; 0% HSA, read-out: EC50 [nM], 0% HSA) | EC50 ([2]; 0.1% HSA, read-out: EC50 [nM], 0.1% HSA) | EC50 [nM] 0% HSA (cAMP, HTRF) [3] | Emax (%) (100% = Sauvagine at 100 nM) [3] |
| --- | --- | --- | --- | --- | --- | --- |
| CC[C@H](C)[C@H](N)C(=O)N[C@H](C(=O)N[C@@H](CC(C)C)C(=O)N[C@@H](CO)C(=O)N[C@@H](CC(C)C)C(=O)N[C@@H](CC(=O)O)C(=O)N[C@@H](C(=O)N1CCC[C@H]1C(=O)N[C@H](C(=O)N[C@@H](CCCCN)C(=O)N[C@@H](CC(C)C)C(=O)N[C@@H](CCCCNC(=O)COCCOCCNC(=O)COCCOCCNC(=O)CC[C@H](NC(=O)CC[C@H](NC(=O)CCCCCCCCCCCCCCCCCCC(=O)O)C(=O)O)C(=O)O)C(=O)N[C@@H](CCC(N)=O)C(=O)N[C@H](C(=O)N[C@@H](CC(C)C)C(=O)N[C@@H](CC(C)C)C(=O)N[C@@H](CCCCN)C(=O)N[C@@H](CCC(N)=O)C(=O)N[C@@H](CCC(=O)O)C(=O)N[C@@H](CCCNC(=N)N)C(=O)N[C@@H](CCC(N)=O)C(=O)N[C@@H](CCCCN)C(=O)NC(C)(C)C(=O)N[C@@H](CCC(N)=O)C(=O)N[C@@H](CCCNC(=N)N)C(=O)N[C@@H](CCC(=O)O)C(=O)N[C@@H](CCC(N)=O)C(=O)N[C@@H](C)C(=O)N[C@@H](CCC(=O)O)C(=O)N[C@@H](CCCCN)C(=O)N[C@@H](CC(N)=O)C(=O)N[C@@H](CCCCN)C(=O)N[C@@H](CCC(N)=O)C(=O)N[C@H](C(=O)N[C@@H](CC(C)C)C(=O)N[C@@H](C)C(=O)N[C@@H](CCC(N)=O)C(=O)N[C@H](C(N)=O)C(C)C)[C@@H](C)CC)[C@@H](C)CC)[C@@H](C)CC)C(C)C)C(C)C [compound 172] (H-IVLSLD[dV]PIKLK([AEEA-AEEA-γGlu-γGlu-C20 diacid])QILLKQERQK[Aib]QREQAEKNKQILAQV-NH2; N-terminus assumed) | > 1000 nM | 25.6% | 0.04 nM | 2.76 nM |  |  |
| B1 |  |  |  |  | > 100 nM | 0.4% |
